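GI50 = concentration required for 50% inhibition of growth. TGI marks complete inhibition of growth.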
Columns and labels:
Test in all cases: DTP human tumour cell line panel, 384-well format
SK-MEL-28 melanoma = system: SK-MEL-28 melanoma
LOX IMVI melanoma = system: LOX IMVI melanoma
UACC-62 melanoma = system: UACC-62 melanoma
CCRF-CEM leukemia = system: CCRF-CEM leukemia
MDA-MB-231 breast = system: MDA-MB-231 breast
UACC-257 melanoma = system: UACC-257 melanoma
NCI-H522 lung = system: NCI-H522 lung
HOP-92 NSCLC = system: HOP-92 NSCLC
SW-620 colon = system: SW-620 colon
SK-MEL-5 melanoma = system: SK-MEL-5 melanoma
A498 renal = system: A498 renal
IGROV1 ovarian = system: IGROV1 ovarian
786-0 renal = system: 786-0 renal
NCI-H23 lung = system: NCI-H23 lung
BT-549 breast = system: BT-549 breast
HL-60(TB) leukemia = system: HL-60(TB) leukemia
T-47D breast = system: T-47D breast
EKVX NSCLC = system: EKVX NSCLC
HS 578T breast = system: HS 578T breast
NCI/ADR-RES ovarian = system: NCI/ADR-RES ovarian
OVCAR-3 ovarian = system: OVCAR-3 ovarian
SR leukemia = system: SR leukemia
DU-145 prostate = system: DU-145 prostate
SF-295 CNS = system: SF-295 CNS
K-562 leukemia = system: K-562 leukemia
OVCAR-5 ovarian = system: OVCAR-5 ovarian
MALME-3M melanoma = system: MALME-3M melanoma
KM12 colon = system: KM12 colon
NCI-H322M lung = system: NCI-H322M lung
NCI-H226 lung = system: NCI-H226 lung
SK-MEL-2 melanoma = system: SK-MEL-2 melanoma
MDA-MB-435 melanoma = system: MDA-MB-435 melanoma
COLO 205 colon = system: COLO 205 colon
SN12C renal = system: SN12C renal
TK-10 renal = system: TK-10 renal
HOP-62 NSCLC = system: HOP-62 NSCLC
PC-3 prostate = system: PC-3 prostate
MOLT-4 leukemia = system: MOLT-4 leukemia
U251 glioblastoma = system: U251 glioblastoma
SF-539 CNS = system: SF-539 CNS
NCI-H460 NSCLC = system: NCI-H460 NSCLC
OVCAR-4 ovarian = system: OVCAR-4 ovarian
CAKI-1 renal = system: CAKI-1 renal
HCT-116 colon = system: HCT-116 colon
MDA-MB-468 breast = system: MDA-MB-468 breast
SK-OV-3 ovarian = system: SK-OV-3 ovarian
SNB-19 CNS = system: SNB-19 CNS

SMILES: CC#CC(=O)N1CC[C@@H](n2c(=O)n(-c3ccc(Oc4ccccc4)cc3)c3c(N)ncnc32)C1
- GI50 (SK-MEL-28 melanoma): 68.3 µM
- TGI (SK-MEL-28 melanoma): > 100 µM
- GI50 (LOX IMVI melanoma): 18.8 µM
- TGI (LOX IMVI melanoma): 36.2 µM
- GI50 (UACC-62 melanoma): 22.8 µM
- TGI (UACC-62 melanoma): > 100 µM
- GI50 (CCRF-CEM leukemia): 11.4 µM
- TGI (CCRF-CEM leukemia): 23.7 µM
- GI50 (MDA-MB-231 breast): 22 µM
- TGI (MDA-MB-231 breast): > 67.8 µM
- GI50 (UACC-257 melanoma): 19.7 µM
- TGI (UACC-257 melanoma): 67.2 µM
- GI50 (NCI-H522 lung): 5.88 µM
- TGI (NCI-H522 lung): 27.9 µM
- GI50 (HOP-92 NSCLC): 13.4 µM
- TGI (HOP-92 NSCLC): > 59.6 µM
- GI50 (SW-620 colon): 25.6 µM
- TGI (SW-620 colon): 55.9 µM
- GI50 (SK-MEL-5 melanoma): 17.7 µM
- TGI (SK-MEL-5 melanoma): 47 µM
- GI50 (A498 renal): 21.7 µM
- TGI (A498 renal): > 74.2 µM
- GI50 (IGROV1 ovarian): 16.8 µM
- TGI (IGROV1 ovarian): 37.4 µM
- GI50 ([…]-0 renal): 23 µM
- TGI (786-0 renal): 66.1 µM
- GI50 (NCI-H23 lung): 30.9 µM
- TGI (NCI-H23 lung): 99.6 µM
- GI50 (BT-549 breast): 16.6 µM
- TGI (BT-549 breast): 33.9 µM
- GI50 (HL-60(TB) leukemia): 13.9 µM
- TGI (HL-60(TB) leukemia): 26.9 µM
- GI50 (T-47D breast): 11.9 µM
- TGI (T-47D breast): 33.1 µM
- GI50 (EKVX NSCLC): 20.7 µM
- TGI (EKVX NSCLC): > 77.2 µM
- GI50 (HS 578T breast): 22.1 µM
- TGI (HS 578T breast): 55.9 µM
- GI50 (NCI/ADR-RES ovarian): 15.7 µM
- TGI (NCI/ADR-RES ovarian): 41.3 µM
- GI50 (OVCAR-3 ovarian): 14.3 µM
- TGI (OVCAR-3 ovarian): 31.3 µM
- GI50 (SR leukemia): 5.69 µM
- TGI (SR leukemia): 18.6 µM
- GI50 (DU-145 prostate): 25.5 µM
- TGI (DU-145 prostate): > 70.2 µM
- GI50 (SF-295 CNS): 40.5 µM
- TGI (SF-295 CNS): > 100 µM
- GI50 (K-562 leukemia): 12.5 µM
- TGI (K-562 leukemia): 38.4 µM
- GI50 (OVCAR-5 ovarian): > 64.3 µM
- TGI (OVCAR-5 ovarian): > 100 µM
- GI50 (MALME-3M melanoma): 37.2 µM
- TGI (MALME-3M melanoma): > 100 µM
- GI50 (KM12 colon): 27.4 µM
- TGI (KM12 colon): > 76.8 µM
- GI50 (NCI-H322M lung): 27.5 µM
- TGI (NCI-H322M lung): > 100 µM
- GI50 (NCI-H226 lung): 21.8 µM
- TGI (NCI-H226 lung): > 74.4 µM
- GI50 (SK-MEL-2 melanoma): 18.1 µM
- TGI (SK-MEL-2 melanoma): 34.7 µM
- GI50 (MDA-MB-435 melanoma): 30 µM
- TGI (MDA-MB-435 melanoma): > 80.4 µM
- GI50 (COLO 205 colon): 37.1 µM
- TGI (COLO 205 colon): > 100 µM
- GI50 (SN12C renal): 20.2 µM
- TGI (SN12C renal): > 90.9 µM
- GI50 (TK-10 renal): 36.5 µM
- TGI (TK-10 renal): > 100 µM
- GI50 (HOP-62 NSCLC): 21.3 µM
- TGI (HOP-62 NSCLC): 61.8 µM
- GI50 (PC-3 prostate): 35.1 µM
- TGI (PC-3 prostate): > 100 µM
- GI50 (MOLT-4 leukemia): 3.13 µM
- TGI (MOLT-4 leukemia): 12.7 µM
- GI50 (U251 glioblastoma): 18.1 µM
- TGI (U251 glioblastoma): 40.3 µM
- GI50 (SF-539 CNS): 21.6 µM
- TGI (SF-539 CNS): 53.6 µM
- GI50 (NCI-H460 NSCLC): 17.1 µM
- TGI (NCI-H460 NSCLC): 33.4 µM
- GI50 (OVCAR-4 ovarian): 29.5 µM
- TGI (OVCAR-4 ovarian): > 100 µM
- GI50 (CAKI-1 renal): 23.5 µM
- TGI (CAKI-1 renal): > 100 µM
- GI50 (HCT-116 colon): 22.1 µM
- TGI (HCT-116 colon): 54.8 µM
- GI50 (MDA-MB-468 breast): 10.1 µM
- TGI (MDA-MB-468 breast): 24.5 µM
- GI50 (SK-OV-3 ovarian): 33.5 µM
- TGI (SK-OV-3 ovarian): > 87.1 µM
- GI50 (SNB-19 CNS): 23.3 µM
- TGI (SNB-19 CNS): > 64.3 µM
